Data reported in patent US11845759B2, “Opioid compounds and uses thereof” (priority 2018, dated 2023).

How the values were obtained:
μ-opioid receptor [1] = target: T1, μ-opioid receptor (Homo sapiens (Human), UniProt P35372); experiment: [35S]GTPγS μ-opioid receptor functional assay; type: biochemical; conditions: for % Response Agonist: Conc. 3 μM, criteria ≥± 50%
μ-opioid receptor [2] = target: T1, μ-opioid receptor; type: binding
[3] = Hydrolysis in simulated intestinal fluid at 37° C.; conditions: for 6,14-bis-PEG-Oxy (%): 6,14-bis-PEG-Oxycodone (86%, 14% mono-PEG) in simulated Intestinal fluid (pH=6.8); for 6,14-bis-PEG-Oxy (%) / 6-OAc-Oxy (%): 37° C.; for 6-OAc-Oxy (%): 6-OAc-Oxy in simulated intestinal fluid
[4] = Hydrolysis in human blood serum at 37° C.; conditions: for 6,14-bis-PEG-Oxy (%): 6,14-bis-PEG-Oxycodone (86%, 14% mono-PEG) in human serum; for 6,14-bis-PEG-Oxy (%) / 6-OAc-Oxy (%): 37° C.; for 6-OAc-Oxy (%): 6-OAc-Oxy in human blood serum
[5] = Hydrolysis in simulated gastric fluid at 37° C.; conditions: for 6,14-bis-PEG-Oxy (%): 6,14-bis-PEG-Oxycodone (86%, 14% mono-PEG) in simulated gastric fluid (pH=1.2); for 6-OAc-Oxy (%): 6-OAc-Oxy in simulated Gastric fluid
[6] = Hydrolysis in HCl solutions; type: physicochemical; conditions: 6-OAc-Oxy
[7] = Hydrolysis in pH buffer/EtOH solutions; type: physicochemical; conditions: 6-OAc-Oxy
[8] = pH = 7 buffer (1:1 EtOH:H2O), 0 hrs
[9] = pH = 7 buffer (1:1 EtOH:H2O), 0.5 hrs
[10] = pH = 7 buffer (1:1 EtOH:H2O), 2 hrs
[11] = pH = 7 buffer (1:1 EtOH:H2O), 26 hrs
[12] = pH = 8 buffer (1:1 EtOH:H2O), 0 hrs
[13] = pH = 8 buffer (1:1 EtOH:H2O), 0.5 hrs
[14] = pH = 8 buffer (1:1 EtOH:H2O), 2 hrs
[15] = pH = 8 buffer (1:1 EtOH:H2O), 26 hrs
[16] = pH = 9 buffer (1:1 EtOH:H2O), 0 hrs
[17] = pH = 9 buffer (1:1 EtOH:H2O), 0.5 hrs
[18] = pH = 9 buffer (1:1 EtOH:H2O), 4 hrs
[19] = pH = 9 buffer (1:1 EtOH:H2O), 8 hrs
[20] = pH = 9 buffer (1:1 EtOH:H2O), 22 hrs
[21] = pH = 10 buffer (1:1 EtOH:H2O), 0 hrs
[22] = pH = 10 buffer (1:1 EtOH:H2O), 0.5 hrs
[23] = pH = 10 buffer (1:1 EtOH:H2O), 2 hrs
[24] = pH = 10 buffer (1:1 EtOH:H2O), 4 hrs
[25] = pH = 11 buffer (1:1 EtOH:H2O), 0 hrs
[26] = pH = 11 buffer (1:1 EtOH:H2O), 0.5 hrs

## COCCOCCOCC(=O)OC1=CCC2(OC(=O)COCCOCCOC)[C@H]3Cc4ccc(OC)c5c4[C@@]2(CCN3C)C1O5 (some centres unmarked) [6,14-bis-PEG oxycodone]
μ-opioid receptor [1]
  EC50: 520 nM
  % Response Agonist: 85%
μ-opioid receptor [1]; conclusion from Table 23
  functional profile at μ-opioid receptor (in words): μ-receptor agonist as effective as oxycodone
μ-opioid receptor [2]
  Ki: 52 nM
  Ki compared with that of oxycodone (in words): comparable
[3]; 0 h
  6,14-bis-PEG-Oxy (%): 86%
[3]; 0.17 h
  6,14-bis-PEG-Oxy (%): 0%
[4]; 0 h
  6,14-bis-PEG-Oxy (%): 86%
[4]; 0.17 h
  6,14-bis-PEG-Oxy (%): 0.71%
[4]; 1 h
  6,14-bis-PEG-Oxy (%): 0%
[5]; 0 h
  6,14-bis-PEG-Oxy (%): 86%
[5]; 1 h
  6,14-bis-PEG-Oxy (%): 77.7%
[5]; 2 h
  6,14-bis-PEG-Oxy (%): 72.5%
[5]; 4 h
  6,14-bis-PEG-Oxy (%): 65.6%
[5]; 20 h
  6,14-bis-PEG-Oxy (%): 30.2%

## COc1ccc2c3c1OC1C(OC(C)=O)=CC[C@@]4(O)[C@@H](C2)N(C)CC[C@]314 (some centres unmarked) [6-acetyl oxycodone]
μ-opioid receptor [1]
  EC50: 1690 nM
  % Response Agonist: 62%
μ-opioid receptor [2]
  Ki: 41 nM
  Ki compared with that of oxycodone (in words): comparable
[3]; 0 hrs
  6-OAc-Oxy (%): 89.4%
[3]; 0.5 hrs
  6-OAc-Oxy (%): 39.8%
[3]; 2 hrs
  6-OAc-Oxy (%): 0.7%
[3]; 4 hrs
  6-OAc-Oxy (%): 0.0%
[3]; mixture in simulated intestinal fluid (37° C., pH 6.8, pancreatine)
  time to hydrolyze releasing oxycodone: less than 2 hours
[6]; 0.1N HCl solution, 0 hrs
  6-OAc-Oxy (%): 89.4%
[6]; 0.1N HCl solution, 0.5 hrs
  6-OAc-Oxy (%): 89.0%
  Oxy (%): 6.43%
[6]; 0.1N HCl solution, 2 hrs
  6-OAc-Oxy (%): 86.4%
  Oxy (%): 7.8%
[6]; 0.1N HCl solution, 8 hrs
  6-OAc-Oxy (%): 86.1%
  Oxy (%): 9.5%
[6]; 0.1N HCl solution, 24 hrs
  6-OAc-Oxy (%): 67.3%
  Oxy (%): 30.1%
[6]; 1N HCl solution, 0 hrs
  6-OAc-Oxy (%): 89.4%
[6]; 1N HCl solution, 0.5 hrs
  6-OAc-Oxy (%): 81.5%
  Oxy (%): 16.6%
[6]; 1N HCl solution, 2 hrs
  6-OAc-Oxy (%): 61.0%
  Oxy (%): 30.3%
[6]; 1N HCl solution, 4 hrs
  6-OAc-Oxy (%): 42.0%
  Oxy (%): 56.4%
[6]; 1N HCl solution, 8 hrs
  6-OAc-Oxy (%): 18.2%
  Oxy (%): 80.8%
[6]; 1N HCl solution, 24 hrs
  6-OAc-Oxy (%): 1.7%
  Oxy (%): 95.3%
[4]; 0 hrs
  6-OAc-Oxy (%): 89.4%
[4]; 0.083 hrs (5 min)
  6-OAc-Oxy (%): 0.65%
[4]; 0.5 hrs
  6-OAc-Oxy (%): 0.39%
[4]; human blood serum (37° C.)
  hydrolysis in human blood serum (in words): hydrolyzed quickly
[4]; human blood serum (37° C.), five minutes
  hydrolysis to oxycodone (in words): mostly hydrolyzed to oxycodone
[5]; 0 hrs
  6-OAc-Oxy (%): 89.4%
[5]; 2 hrs
  6-OAc-Oxy (%): 68.4%
[5]; 4 hrs
  6-OAc-Oxy (%): 66.1%
[5]; 8 hrs
  6-OAc-Oxy (%): 58.1%
[5]; 24 hrs
  6-OAc-Oxy (%): 46.2%
[7]; [8]
  6-OAc-Oxy (%): 89.4%
  Oxy (%): 9.4%
[7]; [9]
  6-OAc-Oxy (%): 87.2%
  Oxy (%): 9.5%
[7]; [10]
  6-OAc-Oxy (%): 87.9%
  Oxy (%): 8.2%
[7]; [11]
  6-OAc-Oxy (%): 77.9%
  Oxy (%): 12.9%
[7]; [12]
  6-OAc-Oxy (%): 89.4%
  Oxy (%): 9.4%
[7]; [13]
  6-OAc-Oxy (%): 87.4%
  Oxy (%): 10.4%
[7]; [14]
  6-OAc-Oxy (%): 87.0%
  Oxy (%): 8.8%
[7]; [15]
  6-OAc-Oxy (%): 75.3%
  Oxy (%): 20.9%
[7]; [16]
  6-OAc-Oxy (%): 89.4%
  Oxy (%): 9.0%
[7]; [17]
  6-OAc-Oxy (%): 89.4%
  Oxy (%): 9.0%
[7]; [18]
  6-OAc-Oxy (%): 86.3%
  Oxy (%): 11.9%
[7]; [19]
  6-OAc-Oxy (%): 75.5%
  Oxy (%): 14.9%
[7]; [20]
  6-OAc-Oxy (%): 66.5%
  Oxy (%): 26.9%
[7]; [21]
  6-OAc-Oxy (%): 89.4%
  Oxy (%): 9.0%
[7]; [22]
  6-OAc-Oxy (%): 32.3%
  Oxy (%): 65.2%
[7]; [23]
  6-OAc-Oxy (%): 1.6%
  Oxy (%): 96.8%
[7]; [24]
  6-OAc-Oxy (%): 1.2%
  Oxy (%): 98.3%
[7]; [25]
  6-OAc-Oxy (%): 89.4%
  Oxy (%): 9.0%
[7]; [26]
  6-OAc-Oxy (%): 1.6%
  Oxy (%): 97.1%
